Source: PubChem BioAssay (NCI)
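Tested at 5 concentrations; 48 h exposure; 96-well plates; endpoints linearly interpolated, else capped at highest concentration. TGI denotes the concentration required for complete inhibition of growth.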

Tested on: P388 leukemia
Test: NCI tumour cell line growth inhibition, 48 h

**Q.** `O=C[C@@H](CO)O[C@H](C=O)n1cnc2c(=O)[nH]cnc21` was tested. Which TGI did it give?
**A.** 374 µM
